Experimental findings from ChEMBL document CHEMBL5131546, “Discovery of 1H-Pyrazole Biaryl Sulfonamides as Novel G2019S-LRRK2 Kinase Inhibitors” (ACS Med Chem Lett, 2022) are described below.

Series [1] in a line: Half life in CD-1 mouse at 0.5 mg/kg, iv by LC-MS/MS analysis. The note with it: in vivo. It is filed as ADME, organism-based.
A short description of series [2]: in vitro. The note with it: human, Caco-2.
Series [3] is described as follows: Volume of distribution at steady state in CD-1 mouse at 0.5 mg/kg, iv by LC-MS/MS analysis. The format is ADME, organism-based. The note with it: in vivo, read-out: Vdss.
The nature of series [4]: MRT in CD-1 mouse at 0.5 mg/kg, iv by LC-MS/MS analysis. It is filed as ADME, organism-based. The note with it: in vivo.
A short description of series [5]: Cmax in CD-1 mouse at 2 mg/kg, po by LC-MS/MS analysis. It is filed as ADME, organism-based. Also on record: dose 2 mg/kg, route po. Conditions: in vivo.
Series [6] in a line: Tmax in CD-1 mouse at 2 mg/kg, po by LC-MS/MS analysis. It is filed as ADME, organism-based. The note with it: in vivo.
Series [7] is described as follows: Clearance in CD-1 mouse at 0.5 mg/kg, iv by LC-MS/MS analysis. The format is ADME, organism-based. The note with it: in vivo.
A short description of series [8]: AUCinf in CD-1 mouse at 2 mg/kg, po by LC-MS/MS analysis. Also on record: time infinity, dose 2 mg/kg, route po. It is filed as ADME, organism-based. The note with it: in vivo.
A short description of series [9]: AUCinf in CD-1 mouse at 0.5 mg/kg, iv by LC-MS/MS analysis. It is filed as ADME, organism-based. Also on record: time infinity, dose 0.5 mg/kg, route iv. Conditions: in vivo.
Series [10] is described as follows: in vitro. The note with it: human, Caco-2. This is another data set of the same source.
A short description of series [11]: Oral bioavailability in CD-1 mouse at 2 mg/kg by LC-MS/MS analysis. The format is ADME, organism-based. The note with it: in vivo.
The nature of series [12]: Cmax in CD-1 mouse at 0.5 mg/kg, iv by LC-MS/MS analysis. Conditions: in vivo. It is filed as ADME, organism-based. Also on record: dose 0.5 mg/kg, route iv.
Series [13] is described as follows: in vitro. Conditions: human, liver microsomes.
Series [14] can be described thus: MRT in CD-1 mouse at 2 mg/kg, po by LC-MS/MS analysis. The format is ADME, organism-based. The note with it: in vivo.
Series [15] is described as follows: Half life in CD-1 mouse at 2 mg/kg, po by LC-MS/MS analysis. The note with it: in vivo. The format is ADME, organism-based.
Series [16] is described as follows: in vitro. The note with it: mouse, liver microsomes. For orientation: Liver microsomes are a subcellular fraction often used to study metabolism.

As usually defined, the half-life is the time needed for the level to fall by half in the phase considered. The low end stands for rapid decline, the high end for slow decline. Usually Papp B→A stands for the apparent permeability from the basolateral to the apical side of a cell layer. As usually defined, the MRT is the average time that molecules of a dose stay in the body. As a reminder, the Cmax is the peak of the concentration-time curve. The term Tmax denotes the time from dosing to the highest level. As a reminder, the clearance is the rate of elimination divided by the concentration. A higher clearance goes with a high capacity for elimination. The AUC(0-inf) is total exposure, with the tail of the curve extrapolated. As usually defined, the Papp A→B is how fast a substance crosses the layer from the apical side. A low value points to poor permeation.

On to `Cc1[nH]nc(-c2ccncc2)c1-c1ccc(-c2cccc(S(N)(=O)=O)c2)c(C2CC2)c1`, for which the half-life is 0.8 h in series [1] and 1.25 h in series [15]. In [2], this molecule had an apparent permeability from basolateral to apical (Papp B→A) at 2 h, 10 µM of 27 ×10⁻⁶ cm/s. In addition, the Vd in series [3] stood at 2 L/kg. Further, the figures for the mean residence time MRT in series [4] and in [14] were 1.01 h and 3.01 h, respectively. The Cmax in [5] and in series [12] was 580 nM throughout. In series [6], the Tmax worked out at 1 h. Also, the clearance in [7] turned out to be 33.5 mL/min/kg. For the same molecule, the total exposure AUC(0-inf) in series [8] was 2.55 µM·h; in series [9], 0.58 µM·h. This molecule also yielded a Papp A→B at 2 h, 10 µM in series [10] of 8.78 ×10⁻⁶ cm/s. In addition, the bioavailability in series [11] was 111%. For the same molecule, the half-life at 40 min in [13] was 2.65 h; in series [16], 0.5 h.
